Experiments:
park2 morphants = experiment: Seahorse basal respiration, park2 morphants (Parkinson's Disease model); assay type: in vivo, zebrafish; conditions: park2-MO
Procedure: (§1) Next, all positive hits were assayed for improve bioenergetics using Seahorse bioanalyzer (Seahorse, Inc). Briefly, morphant zebrafish were seeded into 24-well Islet Flux plates (Seahorse) and incubated with compound or vehicle for 10 minutes prior to analysis. Complete mitochondrial profile was assessed for each individual larvae. Drugs that improved bioenergetics by 40% were considered candidate drugs.
(§2) Morpholinos directed to scn1a (epilepsy), park2 (neurodegenerative disease), idh1 (brain tumors (astrocytoma/oligodendrogliomas), cdkn2b (oligodendroglioma), h3f3a (oligodendroglioma), snf5 (smarcbla in zebrafish; Atypical Teratoid/Rhabdoid)), and shank3 (Autism Spectrum Disorder) were created and zebrafish larvae exposed as detailed in Example 3.

kcna1 morphants = experiment: Drug-discovery platform (locomotor screen, then Seahorse), kcna1 morphant genetic model; assay type: in vivo, zebrafish; conditions: blinded study
Procedure: (§3) 10 mM stock solutions of drugs in DMSO were stored at −80° C. and on the day of assay were diluted in E3 medium to a final concentration of 20 μM. For behavioral assays and Seahorse bioenergetics, 20 μM final concentration was used. Adult wild-type TL zebrafish were raised at the Kurrasch Aquatic Research Laboratory at the University of Calgary under standard conditions (28° C., 14 h light/10 h dark cycle) on a recirculating water system.
(§4) Embryos were obtained by natural spawning from mating pairs, screened for viability and for kcna1 and scn1a morpholino models, embryos were injected with either the kcna1- or scn1a-targeting morpholino at the one cell stage. The embryos were sorted for uptake of the morpholino four hours post-injection and seeded to 96 well plates, wrapped in aluminum foil (i.e., raised in the dark), maintained in a non-CO2 incubator at 28.5° C. until 5 dpf.
(§5) On the day of assay, for the kcna1 and scn1a morpholino models, fish were habituated for 20 minutes under 100% light treated with 20 μm of drugs for 20 minutes, and then assayed for locomotor activity in dark for 20 minutes in the zebrabox (Viewpoint Lifesciences, Lyon, Fr). Larval locomotor activity was analyzed using Zebralab V3 software (Viewpoint Lifesciences, Lyon, Fr). For the PTZ model, at 5 dpf, fish were treated with 10 mM PTZ for 10 minutes and then with 20 μM of drugs for 20 minutes under ambient light, and then assayed for locomotor activity under 100% light for 20 minutes in the zebrabox (Viewpoint Lifesciences, Lyon, Fr). Larval locomotor activity was analyzed using Zebralab V3 software (Viewpoint Lifesciences, Lyon, France).
(§6) For the Seahorse bioenergetics measurements, microinjected kcna1 or scn1a morphants or WT zebrafish were maintained in 96 well plates as previously described. XF24 extracellular flux assay plates (Seahorse Bioscience; Massachusetts), were hydrated overnight with XF Calibrant (pH 7.4). […]

scn1a morphants [1] = experiment: Drug-discovery platform (locomotor screen, then Seahorse), scn1a morphant genetic model; assay type: in vivo, zebrafish; conditions: blinded study
Procedure: as §3, §4, §5, §6

[2] = system: kcna1 zebrafish morphants; experiment: Behavioral hyperactivity (locomotion) assay, kcna1 morphants; assay type: in vivo; conditions: larvae 5 days post fertilization; 10 minutes preincubation, assayed 20 minutes
Procedure: This Example utilizes the drug screening assay disclosed herein using morpholino-injected embryos to transiently knockdown genes of interest. Here, we compare three “epileptic” models for phenotypes in the behavioral assay: pharmacological-induction model (PTZ) and two genetic knockdown models (kcna1 and scn1a morphants).
Larvae were treated with morpholinos to kcna1 and scn1a as described above.
Zebrafish larvae (5 days post fertilization) were seeded into 96 well microliter plates containing vehicle solution and monitored for 20 minutes for hyperactivity. Morphants and WT zebrafish were exposed to drug for 10 minutes preincubation and then assayed for changes in hyperactivity for 20 minutes (Zebralab box). Drugs that decreased hyperactivity behavior by 40% in morphants were identified as “positive hits.”
These positive hits were then verified by conducting a dose-response relationship using hyperactivity as readout.

[3] = system: PTZ-induced hyperactive zebrafish; experiment: Seahorse bioenergetic analysis, PTZ-treated larvae; assay type: in vivo; conditions: Seahorse Bioanalyzer
From the text: One exemplary protocol for measuring oxygen consumption rates (OCR) using Extracellular Flux Analyzer (Seahorse Bioscience, Billerica Mass.) is described below. First, sensor cartridges are hydrated in XF Calibrant Solution in 24-well cell culture microplates overnight at 28.5 C. Prior to experiment, injection ports are filled with appropriate treatments and loaded into XH24 instrument. Staged zebrafish embryos (3 days post fertilization used here) are individually placed in 20 of the 24 wells (4 wells serve as controls) on the islet microplate filled with E3 buffer and islet plate capture screens are placed on top to keep living zebrafish from moving during experiment. Plates are loaded into the instrument and six measurement cycles were taken to establish basal rates, which were then followed by treatment injections and 18 additional measurement cycles. OCRs were calculated at cycles five and six and then averaged to create the basal respiration. […]
Next, all positive hits were assayed for improve bioenergetics using Seahorse bioanalyzer (Seahorse, Inc). […] Complete mitochondrial profile was assessed for each individual larvae. […]
FIG. 4 provides workflow and results of bioenergetic analyses in a hyperactive zebrafish. […] Basal, maximal, non-mitochondrial, and mitochondrial cellular respiration were measured.

kcna1 morphant zebrafish = experiment: Seahorse bioenergetic analysis, kcna1 morphants; assay type: in vivo; conditions: Seahorse Bioanalyzer; for effect on elevated basal respiration in kcna1 morphant larvae: 24-well plate
From the text: One exemplary protocol for measuring oxygen consumption rates (OCR) using Extracellular Flux Analyzer (Seahorse Bioscience, Billerica Mass.) is described below. First, sensor cartridges are hydrated in XF Calibrant Solution in 24-well cell culture microplates overnight at 28.5 C. Prior to experiment, injection ports are filled with appropriate treatments and loaded into XH24 instrument. Staged zebrafish embryos (3 days post fertilization used here) are individually placed in 20 of the 24 wells (4 wells serve as controls) on the islet microplate filled with E3 buffer and islet plate capture screens are placed on top to keep living zebrafish from moving during experiment. Plates are loaded into the instrument and six measurement cycles were taken to establish basal rates, which were then followed by treatment injections and 18 additional measurement cycles. OCRs were calculated at cycles five and six and then averaged to create the basal respiration. FCCP treatment was used to measure maximum OCR and oligomycin was used to measure minimum OCR.
as §1
FIG. 4 provides workflow and results of bioenergetic analyses in a hyperactive zebrafish. […] The plates were loaded into XFe24 Seahorse Bioanalyzer. Basal, maximal, non-mitochondrial, and mitochondrial cellular respiration were measured.

kcna1 mutants = experiment: Seahorse basal respiration, kcna1 genetic mutant larvae; assay type: in vivo, zebrafish; conditions: larvae with increased basal respiration washed with PBS and treated
Procedure: This example confirms that the results of drug screens using zebrafish morphants are the same in zebrafish bearing corresponding germline mutations. kcna1^+/− zebrafish were generated as described in Example 1. Heterozygous kcna1^+/− F1s were incrossed and the offspring examined in a behavioral monitoring chamber (Zebralab). We assume ¾ of the progeny are WT or heterozygotes and ¼ are mutants.
Next, a similar experiment was conducted to confirm that kcna1 mutants display a similar phenotype for mitochondrial function (e.g., increased mitochondrial function). Larvae were seeded into 24-well plates and assayed in the Seahorse machine for altered bioenergetics as discussed above. […] Increased basal respiration levels in approximately 25% of the embryos were also detected, as would be expected for a homozygous recessive mutation. […] Genotype was subsequently confirmed by qPCR (FIG. 9D).

scn1a morphants [4] = experiment: Seahorse basal respiration, scn1a morphants; assay type: in vivo; conditions: scn1a-MO zebrafish
Procedure: as §1, §2

shank3 morphants = experiment: Seahorse basal respiration, shank3 morphants (ASD and schizophrenia model); assay type: in vivo, zebrafish; conditions: shank3-MO
Procedure: as §1, §2

cdkn2b morphants = experiment: Seahorse basal respiration, cdkn2b morphants (glioblastoma model); assay type: in vivo, zebrafish; conditions: cdkn2b-MO
Procedure: as §1, §2

smarcbla morphants = experiment: Seahorse basal respiration, smarcbla morphants (AT/RT model); assay type: in vivo, zebrafish; conditions: smarcbla-MO
Procedure: as §1, with “larvae.” for “larvae. Drugs that improved bioenergetics by 40% were considered candidate drugs.”
as §2

kcna1 mutant zebrafish = experiment: EEG / extracellular field recordings on live zebrafish larvae; assay type: in vivo; conditions: kcna1 mutants plus vorinostat (10 μM)
Procedure: First, EEG recordings on live zebrafish were conducted. Briefly, acute seizure-like activity is measured in WT and mutant zebrafish larvae (5 dpf). Extracellular field recordings were obtained from the optic tectum of zebrafish larvae exposed first to vehicle, then washed out and then exposed to candidate drugs. Recordings are collected over 20 minutes and any decrease in small-amplitude “interictal”-like activity and/or large-amplitude “ictal”-like activity is quantified.

Kv1.1 null mice = experiment: Video EEG seizure recording in Kv1.1 rodent model; assay type: in vivo; conditions: three Kv1.1−/− mice; 20 mg/kg, twice a day, three consecutive days (PND 46-48) vs no treatment (PND 43-45); Two-way ANOVA, F=27.7, p<0.01
Procedure: Second, candidate drugs that decrease interictal-and/or ictal-like activity in mutant zebrafish lines are then validated in rodent models. Two rodent lines that contain coding deletions in the mammalian orthologs to the zebrafish mutants were used. Candidate drugs were injected intracranially and a decrease in seizure behaviors are monitored using video and […].
Briefly, mice were anesthetized with 3% isofluorane for 2 minutes. Eye glue was applied to the mouse, and anesthesia […] to 2% isofluorane. A “toe pinch” was administered to check anesthetic effect. The surgical area was then shaved while still connected to anesthesia. The anesthesia was increased to 2.5% isofluorane and the anesthetic cone placed over the nose. […]
Vorinostat (Drug #90) treatment reduces seizure occurrence in Kv1.1 null mice. Shown is a representative example of an electrographic seizure recorded from a Kv1.1−/−mouse. Three sets of epidural electroencephalogram (EEG) electrodes simultaneously recorded the signals across the rostral (top trace), medial (middle), and caudal (bottom trace) dorsal aspect of the neocortex. Bar graph of the mean number of seizures per day recorded from three Kv1.1−/−mice. Mice were recorded 24 hours per day for 3 consecutive days (No treatment, PND 43-45) and then received vorinostat injections (20 mg/kg, twice a day) for the next three consecutive days (PND 46-48).

SMILES: N[C@@H](Cc1ccc(O)c(O)c1)C(=O)O [L-DOPA]
- effect on increased basal respiration in park2 morphants (park2 morphants): reverses this increased bioenergetics to WT levels

SMILES: CC(Cc1ccccc1)(NC(=O)CN)c1ccccc1 (stereo not shown) [Remacemide]
- uncovered by the screening platform in genetic model (kcna1 morphants) (kcna1 morphants): would not have uncovered
- uncovered by the screening platform in genetic model (scn1a morphants) (scn1a morphants [1]): would not have uncovered

SMILES: C[C@H](NCc1ccc(OCc2cccc(F)c2)cc1)C(N)=O [Safinamide]
- uncovered by the screening platform in genetic model (kcna1 morphants) (kcna1 morphants): would not have uncovered
- uncovered by the screening platform in genetic model (scn1a morphants) (scn1a morphants [1]): would not have uncovered

SMILES: CC(=O)N1N=C(c2ccc(N)cc2)c2cc3c(cc2C[C@H]1C)OCO3 [Talampanel]
- uncovered by the screening platform in genetic model (kcna1 morphants) (kcna1 morphants): would not have uncovered
- uncovered by the screening platform in genetic model (scn1a morphants) (scn1a morphants [1]): would not have uncovered

SMILES: CCCC(CCC)C(=O)O [Valproic acid]
- effect on hyperactivity of kcna1 morphants [2]: no effect
- events via which elevated basal respiration was blocked, PTZ treated larvae [3]: non-mitochondrial-mediated events
- effect on elevated basal respiration in PTZ treated larvae ([3]; 24-well plate): blocked
- events via which increased respiration was blocked, kcna1 morphants (kcna1 morphant zebrafish): mitochondrial-mediated events
- effect on elevated basal respiration in kcna1 morphant larvae (kcna1 morphant zebrafish): blocked
- effect on increased basal respiration in kcna1 mutant larvae (kcna1 mutants): decreased
- effect on increased basal respiration in scn1a morphants (scn1a morphants [4]): reduce basal respiration to WT levels

SMILES: O=C1CCc2ccc(OCCCCN3CCN(c4cccc(Cl)c4Cl)CC3)cc2N1 [aripiprazole]
- effect on increased basal respiration in shank3 morphants (shank3 morphants): Neither resperidon nor aripiprazole were effective

SMILES: CC(C)C[C@H]1C(=O)N2CCC[C@H]2[C@]2(O)O[C@](NC(=O)[C@@H]3C=C4c5cccc6[nH]c(Br)c(c56)C[C@H]4N(C)C3)(C(C)C)C(=O)N12 [bromocriptine]
- effect on increased basal respiration in park2 morphants (park2 morphants): no effect

SMILES: N.N.[Cl][Pt][Cl] [cisplatin]
- effect on increased basal respiration in cdkn2b morphants (cdkn2b morphants): reverses this increased bioenergetics to WT levels
- effect on increased basal respiration in smarcbla morphants (smarcbla morphants): reverses this increased bioenergetics to WT levels

SMILES: O=P1(N(CCCl)CCCl)NCCCO1 (stereo not shown) [cyclophosphamide]
- effect on increased basal respiration in smarcbla morphants (smarcbla morphants): no effect

SMILES: Cc1nc2n(c(=O)c1CCN1CCC(c3noc4cc(F)ccc34)CC1)CCCC2 [resperidon]
- effect on increased basal respiration in shank3 morphants (shank3 morphants): Neither resperidon nor aripiprazole were effective

SMILES: O=C(CCCCCCC(=O)Nc1ccccc1)NO [vorinostat]
- events via which increased respiration was blocked, kcna1 morphants (kcna1 morphant zebrafish): mitochondrial-mediated events
- effect on elevated basal respiration in kcna1 morphant larvae (kcna1 morphant zebrafish): blocked
- effect on seizure-like activity (EEG traces) (kcna1 mutant zebrafish): blocks
- number of seizures per day (video EEG) (Kv1.1 null mice): significantly reduced
- effect on increased basal respiration in kcna1 mutant larvae (kcna1 mutants): decreased

Reference: patent US11013219B2, “Metabolism-based drug screening platform in bioengineered zebrafish” (Path Therapeutics, Inc., priority 2014, dated 2021)
